These results are taken from patent US4766127A, “2-(3-pyridylmethyl)naphthalene-6-carboxylic acid as a thromboxane synthetase inhibitor” (Syntex (U.S.A.) Inc., priority 1987, dated 1988).

What is called % Inhibition is the drop in the measured response relative to a control, in per cent. Usually inhibition stands for the percentage by which the read-out fell short of the control. As usually defined, the IC50 is the concentration needed to halve the response being measured.

One experiment deals with T1, Thromboxane Synthetase (Homo sapiens, UniProt P24557).
T1 construct: Human platelet-rich plasma preparation; endogenous in cells; host or cells: human platelets in citrated platelet-rich plasma
T1 sequence (P24557 1-533): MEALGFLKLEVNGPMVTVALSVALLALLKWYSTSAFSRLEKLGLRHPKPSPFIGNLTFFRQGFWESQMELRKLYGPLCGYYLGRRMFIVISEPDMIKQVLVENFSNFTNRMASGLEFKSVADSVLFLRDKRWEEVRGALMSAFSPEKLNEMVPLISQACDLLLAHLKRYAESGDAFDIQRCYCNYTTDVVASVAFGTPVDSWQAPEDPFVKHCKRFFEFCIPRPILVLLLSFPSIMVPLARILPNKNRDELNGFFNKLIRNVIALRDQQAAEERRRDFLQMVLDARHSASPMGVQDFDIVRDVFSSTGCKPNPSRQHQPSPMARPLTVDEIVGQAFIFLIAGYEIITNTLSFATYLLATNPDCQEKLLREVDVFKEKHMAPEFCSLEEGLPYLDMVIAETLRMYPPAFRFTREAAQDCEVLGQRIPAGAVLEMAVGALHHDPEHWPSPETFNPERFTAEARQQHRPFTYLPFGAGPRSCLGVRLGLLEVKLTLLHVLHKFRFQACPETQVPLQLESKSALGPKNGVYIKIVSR
Put plainly: Inhibition of ADP-induced human platelet aggregation (PRP + pig aortic microsomes) as measure of thromboxane synthetase inhibition. It is filed as cell-based. How it is done:
Platelet Aggregation Inhibition
Comparison of 2-(3-pyridylmethyl)naphthalene-6-carboxylic acid and 2-(3-pyridylmethyl)naphthalene-7-carboxylic acid.
Platelet Aggregation Inducer: ADP
Determination of Inhibition and Thromboxane Synthetase Activity Utilizing Human Platelet Aggregation
Human platelet-rich plasma preparation:
Blood sample is collected into siliconized vacutainers containing sodium citrate (0.5 ml of 11.25% sodium citrate per 15 ml vacutainer) final concentration 0.38%. Platelet rich plasma (PRP) is obtained after centrifuging the blood for 15 minutes at 200 xg at room temperature. Blood and plasma contacts only non-wettable plastic or siliconized glass surfaces. Procedure:
1. Aggregation is followed by the turbidimetric method of Born (J. Physiol. 162, 67p, 1962), using a Payton Dual Channel Aggregometer.
2. PRP-PAM control. 1.0 ml PRP is used. Pig aortic microsomes (PAM), prepared according to Neichi, et al. (Prostaglandins, 19(4), 577-86 (1980)), are incubated in PRP at 37° C. with stirring for 3 minutes, immediately followed by addition of inducer-ADP. The concentration of PAM is chosen to show little or no inhibition of platelet aggregation when compared with the aggregation of PRP alone.
3. PRP-PAM plus thromboxane synthetase inhibitor.
Thromboxane synthetase inhibitor is added to 1.0 ml PRP incubated at 37° C. with stirring for two minutes. The PAM concentration is chosen according to step 2, and is added to PRP incubated at 37° C. with stirring for another 3 minutes. The inducer ADP is added immediately afterwards.

The next experiment deals with prostacyclin. The settings on record: background statement; PGH2 diversion to PGI2 when TxA2 synthesis is blocked; cited from earlier work.
[1] abbreviates: 1 × 10^-4 M, inducer ADP 5×10^-6 M, solvent water.
Setting [2] is: 1.0 × 10^-7 M, inducer ADP 5×10^-6 M, solvent water.
Where [3] appears, read: 2 × 10^-5 M, inducer ADP 5×10^-6 M, solvent water.
The mark [4] stands for this setting: 5 × 10^-4 M, inducer ADP 5×10^-6 M, solvent water.
The mark [5] stands for this setting: 5.0 × 10^-5 M, inducer ADP 5×10^-6 M, solvent water.
Setting [6] is: 5 × 10^-6 M, inducer ADP 5×10^-6 M, solvent water.
Where [7] appears, read: 5.0 × 10^-7 M, inducer ADP 5×10^-6 M, solvent water.

Values joined by “and” are separate entries in the source; they are usually repeats but may differ in a detail not shown here. Equal entries are not always repeated.

In the case of `O=C(O)c1ccc2cc(Cc3cccnc3)ccc2c1` [2-(3-pyridylmethyl)naphthalene-6-carboxylic acid], on Thromboxane Synthetase (setting [1]), the “% Inhibition” value was determined as 85.2% and the inhibition at 100 µM came out at 98.3%. On Thromboxane Synthetase (setting [2]), the “% Inhibition” value is given as 29.3 ± 3.7% and the inhibition at 0.1 µM was determined as 47 ± 5.2%. Further, the inhibition at 0.01 µM on Thromboxane Synthetase (1.0 × 10^-8 M, inducer ADP 5×10^-6 M, solvent water) was found to be 4.7%. Besides, on Thromboxane Synthetase (setting [3]), the “% Inhibition” value came out at 97.4 ± 1.3% and the inhibition at 20 µM was 90.9 ± 1.3%. Besides, the “% Inhibition” value on Thromboxane Synthetase (2 × 10^-7 M, inducer ADP 5×10^-6 M, solvent water) was 58.7 ± 9.2% and 97.1 ± 1.9%. Also, the inhibition at 0.02 µM on Thromboxane Synthetase (2.0 × 10^-8 M, inducer ADP 5×10^-6 M, solvent water) is 1.6%. Besides, on Thromboxane Synthetase (setting [4]), the “% Inhibition” value is 87.3% and the inhibition at 500 µM stood at 96.6%. Further, on Thromboxane Synthetase (setting [5]), the “% Inhibition” value stood at 86.5 ± 2.2% and the inhibition at 50 µM was determined as 86.8 ± 1.8%. On Thromboxane Synthetase (setting [6]), the “% Inhibition” value is 100.0% and 85.1 ± 4.1% and 85.3 ± 5.5%; the inhibition at 5 µM was 88.7 ± 3.5%. For the same compound, at Thromboxane Synthetase (setting [7]), the “% Inhibition” value is 75.8 ± 3.5% and the inhibition at 0.5 µM was 78.3%. For the same compound, at Thromboxane Synthetase (factor relative to 2-(3-pyridylmethyl)-naphthalene-7-carboxylic acid), the “greater activity as a thromboxane synthetase inhibitor by a factor” value is on record as “about 200”.

Turning to `O=C(O)c1ccc2ccc(Cc3cccnc3)cc2c1` [2-(3-pyridylmethyl)naphthalene-7-carboxylic acid, reference compound], the inhibition at 100 µM on Thromboxane Synthetase (setting [1]) came out at 88.8%. The inhibition at 20 µM on Thromboxane Synthetase (setting [3]) was 47.9%. For the same compound, on Thromboxane Synthetase (setting [4]), the inhibition at 500 µM was determined as 92.8%. For the same compound, the inhibition at 5 µM at Thromboxane Synthetase (setting [6]) stood at 18.2%. For the same compound, the IC50 at Thromboxane Synthetase (platelet aggregation inhibition, inducer ADP 5×10^-6 M, solvent water) worked out at 21 µM.

In the case of `O=C(O)c1ccc(OCCn2ccnc2)cc1` [dazoxiben], the “levels of prostacyclin produced” value in the experiment with prostacyclin was “quite low”.
